We go through one molecule from US8551951B2, “Pharmaceutical preparations and methods for inhibiting tumors” (Aenorasis SA Pharmaceuticals and Medical Devices, priority 2000, dated 2013).

SMILES strings stand for the structures. Peptide text beside a SMILES is read from it.

This test concerns PC-3 cells. Nature of the test: [^3H]-Thymidine uptake assay. To be noted: GMP grade. The format is cell-based, human. How it is done:
The in vitro growth inhibition effect of rHuPSP94 was assessed using [^3H]-Thymidine uptake assay. [^3H]-Thymidine uptake assay involves [^3H]-Thymidine incorporation into cellular DNA of actively proliferating cells. It measures the proliferative index of the cells versus the MTS assay, which quantifies the number of lived cells following treatment. Cells were seeded in Costar 96 well cell culture flat bottom plates in RPMI supplemented media containing 50 μg/ml of bovine serum albumin (BSA) and 0.1 μM FeSO4. PC-3 cells were exposed to various concentrations of rHuPSP94 for 72 hours and during the final 16 hours of incubation cells were pulsed with 1 μCi of [^3H]-Thymidine. The radioactivity in each well of the plate is counted by a beta-counter and is expressed as total counts per minutes (cpm). Results of in vitro effect of rHuPSP94 on PC-3 cells using the ^3[H]-Thymidine uptake assay are summarized in Table 3 and are expressed as percentage of radioactivity measured for treated-cells relative to the radioactivity measured for non-treated cells (for which [^3H]-thymidine uptake value was set at 100%).
[^3H]-Thymidine uptake assay involves [^3H]-Thymidine incorporation into cellular DNA of actively proliferating cells. [^3H]-Thymidine uptake assay measures the proliferative index of the cells versus the MTS assay, which quantifies the number of lived cells following treatment. The anti-proliferative effects of PCK3145 and two other synthetic polypeptides derived from the amino and carboxy terminus ends of PSP94 (SEQ ID NO: 4 and NO: 6, respectively) as well as the decapeptide (SEQ ID NO: 3) previously shown to mimic the biological action of native PSP94 were assessed in [H3]-Thymidine uptake assay on PC-3 cells. Two separate experiments were conducted with GMP-grade PCK3145.

Consider `C[C@@H](O)[C@H](NC(=O)[C@H](CCC(=O)O)NC(=O)[C@H](Cc1ccc(O)cc1)NC(=O)[C@H](CS)NC(=O)[C@@H](NC(=O)[C@H](CS)NC(=O)[C@@H](NC(=O)[C@H](CCC(=O)O)NC(=O)[C@H](CS)NC(=O)[C@H](CC(N)=O)NC(=O)[C@H](CC(=O)O)NC(=O)[C@@H](NC(=O)[C@H](CCC(N)=O)NC(=O)[C@H](Cc1c[nH]c2ccccc12)NC(=O)[C@@H](N)CCC(=O)O)[C@@H](C)O)[C@@H](C)O)[C@@H](C)O)C(=O)O` [PCK3145, EWQTDNCETCTCYET] (H-EWQTDNCETCTCYET-OH; N-terminus and C-terminus assumed), for which the “reduction in [^3H]-Thymidine uptake” value (200 μg/ml, first experiment) is listed as roughly 40%. The “inhibition of [^3H]-Thymidine uptake” value (400 μg/ml, second experiment) worked out at 25%.
